Reference: ChEMBL document CHEMBL1649192, “Dynamics of malaria drug resistance patterns in the Amazon basin region following changes in Peruvian national treatment policy for uncomplicated malaria” (Antimicrob Agents Chemother, 2009)

Assays:
Plasmodium falciparum [1] = assay: Antimicrobial activity against Plasmodium falciparum harboring NGFSDD genotype after 72 hrs by SYBR green I assay
Plasmodium falciparum [2] = assay: Antimicrobial activity against Plasmodium falciparum harboring CVMNT genotype after 72 hrs by SYBR green I assay
Plasmodium falciparum [3] = assay: Antimicrobial activity against Plasmodium falciparum harboring SVMNT genotype after 72 hrs by SYBR green I assay

Structure (SMILES) | IC50 (Plasmodium falciparum [1]) | IC50 (Plasmodium falciparum [2]) | IC50 (Plasmodium falciparum [3])
OC(c1cc(C(F)(F)F)nc2c(C(F)(F)F)cccc12)C1CCCCN1 (stereo not drawn) [MEFLOQUINE] | 21 nM | – | –
C=C[C@H]1CN2CC[C@H]1C[C@H]2[C@H](O)c1ccnc2ccc(OC)cc12 [QUININE] | – | 66 nM | 70 nM
